Assay results: PubChem BioAssay (NCI)
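Briefly, cells in 96-well plates were exposed to five compound concentrations for 48 h, and endpoints were estimated by linear interpolation. GI50 = concentration required for 50% inhibition of growth. TGI is the concentration that stops growth completely.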

Legend:
Assay in all cases: NCI anticancer screen, dose series, 48 h
A549 NSCLC = system: A549 NSCLC
HCT-116 colon = system: HCT-116 colon
UACC-257 melanoma = system: UACC-257 melanoma
M14 melanoma = system: M14 melanoma
OVCAR-3 ovarian = system: OVCAR-3 ovarian
SK-MEL-2 melanoma = system: SK-MEL-2 melanoma
NCI-H226 lung = system: NCI-H226 lung
RXF 393 renal = system: RXF 393 renal
LOX IMVI melanoma = system: LOX IMVI melanoma
MOLT-4 leukemia = system: MOLT-4 leukemia

SMILES	TGI (A549 NSCLC) [µM]	TGI (HCT-116 colon) [µM]	TGI (UACC-257 melanoma) [µM]	TGI (M14 melanoma) [µM]	TGI (OVCAR-3 ovarian) [µM]	TGI (SK-MEL-2 melanoma) [µM]	TGI (NCI-H226 lung) [µM]	TGI (RXF 393 renal) [µM]	TGI (LOX IMVI melanoma) [µM]	TGI (MOLT-4 leukemia) [µM]	GI50 (MOLT-4 leukemia) [µM]
CCOP(=O)(OCC)C(C#N)Cc1ccco1 (configuration not stated)	> 10	> 10	> 10	> 10	> 10	> 10	> 10	> 10	> 10	> 10	–
O=c1c(=O)c2c(Br)sc(Br)c2c1=O	> 100	37.8	36.5	34.3	35.2	41.1	> 100	34.7	36.4	48.3	–
CCOC(=O)/C(C#N)=C/c1ccnc2ccccc12	> 100	> 100	> 100	> 100	> 100	> 100	> 100	> 100	72.1	> 100	–
FC(F)(F)c1cccc(-c2nc3ccccc3c3c2[C@@]2(N4CCCC4)CCCC[C@@H]32)c1	> 100	> 100	> 100	> 100	> 100	41.3	> 100	> 100	38.6	> 100	–
Clc1ccc(C(SCc2ccccc2)SCc2ccccc2)cc1	> 10	> 10	> 10	> 10	> 10	> 10	> 10	> 10	> 10	> 10	–
O=[N+]([O-])c1cc2c(cc1/C=N/n1c(CO)nc3ccccc31)OCO2	> 100	> 100	> 100	> 100	> 100	> 100	> 100	> 100	> 100	> 100	–
C[N+]1(CCCl)CC[N+](C)(CCCl)CC1 (configuration not stated)	> 100	> 100	> 100	> 100	> 100	> 100	> 100	> 100	> 100	> 100	–
CCCCCCCCCCCCCCCC(=O)N(CCCCCCCCCCC(=O)O)CC(O)C(O)C(OC1OC(CO)C(O)C(O)C1O)C(O)CO (configuration not stated)	> 100	> 100	55.7	50.2	> 100	43.5	> 100	> 100	35.1	46.4	–
CC[C@H]1C=CCC[C@@]2(C[C@@H]3CC[C@H]4[C@@H](C(=O)OCCCCCCCCCCCCCCCC(=O)N(CCCN)C[C@@H](O)CCN)[C@@]5(CCC[C@@H](C)O5)NC(=[N+]34)N2)O1	3.35	2.96	3.41	3.82	> 10	3.29	3.32	4.41	3.35	2.84	–
Cc1ccc(NC(=O)CSc2nc(=O)[nH]c3nc[nH]c23)cc1	> 100	> 100	> 100	> 100	> 100	> 100	> 100	> 100	> 100	> 100	–
O=C1c2cc(Cl)ccc2NC(=NCCCl)C2CSCN12 (configuration not stated)	> 100	> 100	> 100	> 100	> 100	> 100	> 100	> 100	> 100	> 100	–
CC(=O)OC1COC(Nc2nc(NCc3ccccc3)n(C)c(=O)c2N=O)C(OC(C)=O)C1OC(C)=O (configuration not stated)	> 10	> 10	> 10	> 10	> 10	> 10	> 10	> 10	> 10	> 10	–
C=C1C(=O)O[C@@H]2C=C(C)C3=CC(=O)[C@](C)(C[C@H](OC(=O)/C(C)=C\C)[C@@H]12)O3	10.1	0.868	8.62	2.46	1.71	6.73	4.99	1.52	0.979	1.5	0.353
N#Cc1c(-c2ccccc2)c(N=Nc2ccc(Cl)cc2)c(=O)n2c1[nH]c1ccccc12	> 100	> 100	> 100	> 100	> 100	> 100	> 100	> 100	> 100	–	–
O=CC12C3CCC1C2C(=O)C3 (configuration not stated)	> 100	> 100	> 100	> 100	> 100	> 100	> 100	> 100	> 100	> 100	–
CN(C)C(=O)OC(Cn1cncn1)(Cn1cncn1)c1ccc(Cl)cc1Cl	> 100	–	> 100	> 100	> 100	> 100	> 100	> 100	> 100	> 100	–
COc1cc2cc(C(=O)N3CC(CCl)c4c3cc(N)c3ccccc43)[nH]c2c(OC)c1OC (configuration not stated)	1.4	1.08	–	–	< 0.01	< 0.01	1.13	< 0.01	0.0103	< 0.01	–
COc1ccc(N2C=Nn3c(nc4sc5c(c4c3=O)CCCC5)C2)cc1	> 100	> 100	> 100	> 100	> 100	93.1	> 100	57.1	> 100	> 100	–
Cc1cc(S(=O)(=O)Nc2nc(N)nc(N(C)C)n2)c(SCC(=O)O)cc1Cl	> 10	> 10	> 10	> 10	> 10	> 10	> 10	> 10	> 10	> 10	–
O=C(O)Cc1ccc2[nH]c(O)c(C3=Nc4ccccc4C3=O)c2c1	> 100	68.5	> 100	> 100	67.3	> 100	> 100	58.5	> 100	> 100	–
O=C(O)CC1NCc2cc3ccccc3nc21 (configuration not stated)	> 100	> 100	> 100	> 100	> 100	> 100	> 100	> 100	> 100	> 100	–
